Results: US20140179726A1, “GUT MICROFLORA AS BIOMARKERS FOR THE PROGNOSIS OF CIRRHOSIS AND BRAIN DYSFUNCTION” (priority 2011, published 2014)
“And” between values parts separate entries of the source, which are not always exact repeats. Equal values may be shown once.

Legend:
mucosal microbiome = experiment: Colonic mucosal microbiome by MTPS, compared using Metastats (Example 2); type: in vivo, human; conditions: colonic mucosa, HE patients
Procedure: Interrogation of the Microbiome: Stool was collected and DNA extracted for microbiome analysis using published techniques (30). A subset underwent an un-sedated, unprepared flexible sigmoidoscopy during which a pinch biopsy of the recto-sigmoid mucosa was obtained, which was snap-frozen and stored at −80° C. till the analysis. We first use Length Heterogeneity PCR (LH-PCR) fingerprinting of the 16S rRNA to rapidly survey samples and standardize the community amplification. We then interrogated the microbial taxa associated with the gut fecal microbiome using Multitag Pyrosequencing (MTPS) (16). This technique allows for rapid sequencing of multiple samples at one time yielding thousands of sequence reads per sample.
Microbiome Community Fingerprinting: LH-PCR was done to standardize the community analysis as previously published. Briefly, total genomic DNA was extracted from tissue using Bio101 kit from MP Biomedicals Inc., Montreal, Quebec as per the manufacturer's instructions. About 10 ng of extracted DNA was amplified by PCR using a fluorescently labeled forward primer 27F (5′-(6FAM) AGAGTTTGATCCTGGCTCA G-3′, SEQ ID NO: 1) and unlabeled reverse primer 355R′ (5′-GCTGCCTCCCGTAGGAGT-3′, SEQ ID NO: 2). Both primers are universal primers for Bacteria (23). The LH-PCR products were diluted according to their intensity on agarose gel electrophoresis and mixed with ILS-600 size standards (Promega) and HiDi Formamide (Applied Biosystems, Foster City, Calif.). The diluted samples were then separated on a ABI 3130x1 fluorescent capillary sequencer (Applied Biosystems, Foster City, Calif.) and processed using the Genemapper™ software package (Applied Biosystems, Foster City, Calif.). Normalized peak areas were calculated using a custom PERL script and operational taxonomic units (OTUs) constituting less than 1% of the total community from each sample were eliminated from the analysis to remove the variable low abundance components within the communities.
MTPS: We employed the MTPS process to characterize the microbiome from the fecal and biopsy samples. Specifically, we have generated a set of 96 emulsion PCR fusion primers that contain the 454 emulsion PCR linkers on the 27F and 355R primers and a different 8 base “barcode” between the A adapter and 27F primer. Thus, each fecal sample was amplified with unique bar-coded forward 16S rRNA primers and then up to 96 samples were pooled and subjected to emulsion PCR and pyrosequenced using a GS-FLX pyrosequencer (Roche). Data from each pooled sample were “deconvoluted” by sorting the sequences into bins based on the barcodes using custom PERL scripts. Thus, we were able to normalize each sample by the total number of reads from each barcode. We have noted that ligating tagged primers to PCR amplicons distorts the abundances of the communities and thus it is critical to incorporate the tags during the original amplification step.
Microbiome Community Analysis: We identified the taxa present in each sample using the Bayesian analysis tool in Version 10 of the Ribosomal Database Project (RDP10). […] We chose this cutoff because of our a priori assumption that genera present in <1% of the community vary between individuals and have minimal contribution to the functionality of that community and 2,000 reads per sample will only reliably identify community components that are greater than 1% in abundance (16). […]

stool microflora = experiment: Prospective study after lactulose withdrawal: stool microbiome on lactulose and 14 days off; type: in vivo, human
Procedure: Prospective study: A selected group of seven cirrhotic patients in the HE group currently only on lactulose (who were also included in the cross-sectional study) were systematically withdrawn from therapy. Their diet was controlled over the study period. Their stool microflora was analyzed while on lactulose and then 14 days off of lactulose therapy. Day 14 was chosen since prior culture-based studies have shown a change in fecal flora after lactulose initiation within that time frame (31).
Interrogation of the Microbiome: Stool was collected and DNA extracted for microbiome analysis within 24 hours of collection from patients and controls using published techniques (29). We first routinely use Length Heterogeneity PCR (LH-PCR) fingerprinting of the 16S rRNA to rapidly survey our samples and standardize the community amplification. We then interrogated the microbial taxa associated with the gut fecal microbiome using Multitag Pyrosequencing (MTPS). This technique allows the rapid sequencing of multiple samples at one time yielding thousands of sequence reads per sample (12).
MTPS: We employed the MTPS process to characterize the microbiome from the fecal samples. Specifically, we have generated a set of 96 emulsion PCR fusion primers that contain the 454 emulsion PCR linkers on the 27F and 355R primers and a different 8 base “barcode” between the A adapter and 27F primer. Thus, each fecal sample was amplified with unique bar-coded forward 16S rRNA primers and then up to 96 samples were pooled and subjected to emulsion PCR and pyrosequenced using a GS-FLX pyrosequencer (Roche). Data from each pooled sample were “deconvoluted” by sorting the sequences into bins based on the barcodes using custom PERL scripts. Thus, we were able to normalize each sample by the total number of reads from each barcode. We have noted that ligating tagged primers to PCR amplicons distorts the abundances of the communities and thus it is critical to incorporate the tags during the original amplification step (12). Several groups have employed various barcoding strategies to analyze multiple samples and this strategy is now well accepted (38).
RDP10 Analysis: We identified the taxa present in each sample using the Bayesian analysis tool in Version 10 of the Ribosomal Database Project (RDP10). The abundances of the bacterial identifications were then normalized using a custom PERL script and taxa present at >1% of the community were tabulated. We chose this cutoff because of our a priori assumption that taxa present in <1% of the community vary between individuals and have minimal contribution to the functionality of that community and 2,000 reads per sample will only reliably identify community components that are greater than 1% in abundance (13).
The cirrhosis group was divided into those with and without HE and were compared. Data from the significant variables between HE and non-HE groups were combined in a MANOVA model. Within HE patients, comparison was made between those on lactulose alone to those with lactulose and rifaximin. Microbiome abundance comparisons between groups were made at a family level using non-parametric tests. A comparison was performed between patients on and withdrawn off of lactulose therapy using the Wilcoxon matched-pair signed rank tests. All values are presented as mean±standard deviation unless mentioned otherwise.

[1] = stool, baseline on lactulose, seven patients

## OC[C@H]1O[C@@H](O[C@@H]2[C@@H](CO)OC(O)(CO)[C@H]2O)[C@H](O)[C@@H](O)[C@H]1O (mixture of isomers) [lactulose]
Mucosal microbiome; p 0.005
  Lachnospiraceae_Roseburia: 1.9 % abundance
Mucosal microbiome; p 0.008
  Incertae Sedis XIV_Blautia: 4.2 % abundance
Mucosal microbiome; p 0.03
  Propionibacteriaceae_Propionibacterium: 1.1 % abundance
  Rikenellaceae_Alistipes: 1.8 % abundance
  Veillonellaceae_Other: 1.1 % abundance
Stool microflora; after systematic withdrawal of lactulose, seven patients
  clinically recurrent HE at day 14: None of the patients had clinically recurrent HE
Stool microflora; stool, 14 days off lactulose, p=0.026 vs on lactulose
  abundance of Faecalibacterium spp. post-withdrawal: 1%
Stool microflora; stool, 14 days off lactulose, trend, p=0.07
  abundance of Veillonella spp. post-withdrawal: 0%
Stool microflora; [1]
  abundance of Alcaligenaceae: 2.6%
  abundance of Alistipes: 3%
  abundance of Bacteroides: 35%
  abundance of Clostridium spp.: < 1%
  abundance of Dialister: 2%
  abundance of Faecalibacterium: 7% and 6%
  abundance of Hafnia: 2%
  abundance of Hallella: 4%
  abundance of Lachnospira: 5%
  abundance of Lactobacillus spp.: < 1%
  abundance of Parabacteroides spp.: 2%
  abundance of Porphyromonadaceae: 1.7%
  abundance of Prevotella: 13%
  abundance of Roseburia: 3%
  abundance of Ruminococcus spp.: < 1%
  abundance of Shigella spp.: < 1%
  abundance of Streptococcus spp.: < 1%
  abundance of Succinispira spp.: 2%
  abundance of Sutterella spp.: 1%
  abundance of Veillonella: 2%
Stool microflora; stool, day 14, including Porphyromonadaceae and Alcaligenaceae
  other relative abundance change after lactulose withdrawal: No other significant relative abundance change
